From US20090202453A1, “Oral Composition” (Hindustan Lever Limited, priority 2004, published 2009)

What was measured:
[1] = upper aqueous solution pH attained without precipitating zinc hydroxide; assay type: physicochemical; details: 1:3 molar ratio of zinc to ligand
[2] = binding affinity of one ligand with free zinc ion; recorded at pH 7.4
Protocol: The log Ks1 is the logarithm of the primary Stability Constant which is the binding affinity for a particular ligand with a particular metal ion, in the present invention zinc. […] Since [L] is a function of the solution pH, due to the required initial deprotonation of the ligand, as a reference point, the log Ks1 values described were recorded at pH 7.4.

NCC(=O)O [glycine]
pH at which zinc hydroxide precipitates [1]: >10
zinc-ligand (log Ks1) [2]: 5.16

CC(=O)O [acetic acid]
pH at which zinc hydroxide precipitates [1]: 5.82
pH at which zinc hydroxide precipitates ([1]; listed as acetate): below 6
